# Assay results reported in PMC8618024 (2021).
# “Also recorded” adds a separate entry of the source.
# Columns and labels:
# [1] = natural microbial communities in sediments; conditions: cited from earlier work
# [2] = Strain m6 cells resuspended in sterile MSM (mineral salt medium); conditions: Sphingopyxis sp. m6, 30 °C, up to six days
# [3] = tested on: recombinant MlrA; test: CEs (cell-free extracts) of recombinant mlrA-HMBP-pET28a/BL21 in sterile water; conditions: mlrA-HMBP-pET28a/BL21, 37 °C, up to 48 h
# [4] = suspension of HMBP-pET28a/BL21 (negative control) in sterile water; conditions: HMBP-pET28a/BL21, 37 °C, up to 144 h
# [5] = Sphingomonas sp. B-9 cells; conditions: cited from earlier work
# [6] = tested on: MlrA; test: suspension of intact recombinant mlrA-HMBP-pET28a/BL21 in sterile water; conditions: mlrA-HMBP-pET28a/BL21, 37 °C, up to 144 h
# [7] = Strain m6 cells in MSM, pH 7, at 40 °C; conditions: Sphingopyxis sp. m6, 40 °C, up to six days
# [8] = CEs from HMBP-pET28a/BL21 (negative control) in sterile water; conditions: HMBP-pET28a/BL21, 37 °C, up to 12 h
substance,measurement,setting,value
"D-MeAsp, L-Arg, Adda, D-Glu, and Mdhb",fragment found,[1],linear NOD and Adda and H-Glu-Mdhb-MeAsp-Arg-OH and H-Adda-Glu-Mdhb-MeAsp-OH and H-Adda-Glu-Mdhb-MeAsp-Cit-OH
same,cleaved bond,[2],"Arg-Adda, first_seen; also recorded: Adda-Glu; also recorded: Glu-Mdhb; also recorded: Mdhb-MeAsp"
same,cleaved bond,[3],"Arg-Adda, first_seen"
same,not cleaved,[4],remaining essentially unchanged
same,fragment found,[5],linear NOD and Adda
same,cleaved bond,[6],"Arg-Adda, first_seen"
same,not cleaved,[7],the toxin concentration barely decreased
same,not cleaved,[8],remaining essentially unchanged
